Test results published in PMC1790702, “Non-Metabolic Membrane Tubulation and Permeability Induced by Bioactive Peptides” (PLoS ONE, 2007).
Like-named read-outs stand apart in the source and are kept apart here.

Assays:
[1] = system: CHO cells; assay: Cytotoxicity, CCK8 cell counting kit; assay type: cell-based; settings: for Lethality: after 48 hours of incubation of CHO cells with 10 µM peptides, CCK8, DMEM plus 10 % FCS, 37°C
Method: (§1) Annexin 2-GFP expression vector was a kind gift of Dr Stephen Moss (London UK). The annexin2-GFP transfected MDCK cloning will be published elsewhere. MDCK cells were cultured as described. Peptides were added at different concentrations and the annexin-GFP fluorescence was followed in a Zeiss inverted microscope. Films were acquired with Metamorph software. Cytotoxicity in CHO cells was evaluated using the CCK8 cell counting kit (Dojindo Laboratories). Briefly, cell suspension (100 µl, 1500 CHO cells per well) were seeded in DMEM plus 10 % FCS in 96-well microtiter plate at 37°C. 10 µl of peptides were added twice to the cells after 24 and 48 hours of cell culture to obtain concentrations of 1, 10, 20 and 50 µM and the toxicity was evaluated 48 after treatment.

[2] = system: Annexin 2-GFP transfected MDCK cells; assay: Cell permeability, Ca2+ influx monitored by Annexin 2-GFP movement; assay type: cell-based; settings: for Ca2+ influx and mobilization of annexin 2 from cytosol to the plasma membrane: 10 µM peptide, in 10 minutes; for Ca2+ influx and mobilization of annexin 2 from cytosol to the plasma membrane / Permeability towards ions at high peptide concentration: Annexin 2-GFP MDCK cells; for Cell permeabilization: monitored by calcium permeability inducing annexin 2 movement in MDCK cells; for Permeability towards ions at high peptide concentration: 100 µM peptide
Method: as §1

[3] = LUV aggregation by turbidimetry; settings: for P/L ratio at which LUV aggregation decreases / P/L ratio at the plateau of LUV aggregation: HEPES 10 mM pH 7.4, 20 min; for P/L ratio at which LUV aggregation decreases / Peptide/lipid mass ratio (P/L) at which LUV aggregation starts / P/L ratio at the plateau of LUV aggregation: 25°C; for P/L ratio at which LUV aggregation decreases: peak-like profile; for Peptide/lipid mass ratio (P/L) at which LUV aggregation starts: turbidity, absorbance at 340 nm, 10 µg LUVs in 500 µl HEPES 10 mM pH 7.4, 20 min after peptide addition; for Peptide/Lipid ratio at which LUVs are aggregated efficiently: discussion, from figure 5
Method: (§2) Large unilamellar vesicles (LUV) were prepared by extrusion through a polycarbonate filter (pore diameter 100 nm) in an extrusion device from Avestin as described in [38]. To obtain calcein loaded LUVs, at 2 mg/ml lipid concentration (PC/PG/ [^14C] PC 9/1/0.01 mol ratio), a solution in chloroform was dried under a gentle stream of nitrogen and maintained under vacuum for at least 2 h to ascertain removal of residual solvent. Then, the dried lipid film was hydrated with 1 ml of 70 mM calcein solution in HEPES 10 mM pH 7.4, vigorously vortexed and extruded. Free calcein was separated by passing the suspension trough two gel filtration columns in tandem (Econo-Pac 10 DG, Bio-Rad). The final lipid concentration was quantified measuring the [^14C] PC radiactivity with a liquid scintillation counter LS 6000 SC (Beckman Coulter France).
LUVs aggregation was monitored by turbidimetry (absorbance at 340 nm) in a Cary spectrophotometer (Varian) as described. Peptides were added to a 500 µl quartz cuvette containing 10 µg of LUVs in a HEPES 10 mM pH 7.4 buffer and the absorbance was followed during 20 min after peptide exposure. At this time, membrane aggregation attained the plateau.

[4] = Membrane deformations on giant unilamellar vesicles, phase contrast video-microscopy
Method: Giant unilamellar vesicles (GUVs) were obtained by electroformation as described in [49]. Briefly, 1.5 µl of PC/PG (9/1, w/w) solution (0.4 mg/ml in chloroform/methanol 9/1) were spread on each platinum electrode. The lipid film was dried for half an hour under a gentle stream of nitrogen. The chamber was placed in an inverted microscope (Zeiss Axiovert 200M) and a thermocouple positioned to monitor the temperature (25°C). The electrodes were then completely hydrated with 2 ml of a low ionic strength buffer (HEPES 0.5 mM, pH 7.4 and conductivity 20 µS/cm). Immediately after buffer addition, a low frequency alternating field (5 Hz and 1 V) was applied on the electrodes for at least 2 hours. GUVs of diameter between 10 to 100 µm were observed. […] The observation temperature was 25°C.

[5] = Small angle X-ray scattering of multilamellar vesicles, electron density profiles; assay type: physicochemical; settings: for S^−1 (repeat distance), Ld1 phase / S^−1 (repeat distance), Ld2 phase: 5 mM HEPES pH 7.4, 20°C; for dwater (thickness of the hydration layer), Ld2 phase: peptide-free 2.19; for dwater (thickness of the hydration layer), Ld1 phase: peptide-free 2.23; for dbilayer (thickness of the membrane bilayer), Ld1 phase: peptide-free 3.90; for Change of membrane thickness, Ld2 phase / Change of bilayer thickness, Ld1 phase: versus peptide-free PC/PG (9/1) MLVs, P/L 1/20 (w/w)
Method: Briefly, samples for SAXS examination were prepared by dissolving dry lipids in chloroform/methanol (2/1, vol/vol) and mixing to obtain the indicated proportions. The solvent was subsequently evaporated under a stream of oxygen-free dry nitrogen at 45°C and traces of solvent removed by a storage under high vacuum for 2 days. In order to obtain the Multiple Lamellar Vesicles (MLVs) the dry lipids were hydrated with an equal weight of buffer (5 mM HEPES pH 7.4). The aqueous lipid dispersion was thoroughly stirred to obtain a homogeneous dispersion, sealed under argon and kept until examination at 4°C. For X-ray measurements, lipid samples (∼20 µl) were deposited between two thin mica windows and mounted on a programmable thermal stage (Linkam, UK). The temperature was monitored by a thermocouple (Quad Service, Poissy, France) inserted directly into the lipid dispersion. Samples were exposed for 30 seconds to the beam (1.5 Å wavelength). The SAXS quadrant detector response was corrected for the uneven channel response using a static radioactive […] and S was calibrated for d-spacing using hydrated rat tail collagen. Information on the setup, calibration, and facilities are available on the station web site (http://www.srs.dl.ac.uk/ncd/station82/description.html).
The electron density profiles of lipid bilayers were obtained by Fourier synthesis of x-ray diffraction patterns. Integrated densities were derived from five diffraction orders (estimated spatial resolution <0.12 nm) by measuring the area under each diffraction peak separated and integrated using the software Peakfit (Seasolve).

[6] = Calcein leakage from LUVs; settings: 25°C; for Calcein release: peptide/lipid ratio of 1/2, LUVs PC/PG/[14C]PC 9/1/0.01, 70 mM calcein, HEPES 10 mM pH 7.4, 5 min after peptide addition, fluorescence, relative to lysis with 1% Triton X-100
Method: as §2
The release of calcein after 5 minutes of peptide exposure to LUVs was measured by spectrofluorimetry (Varian eclipse) at excitation and emission wavelengths of 490 nm and 500–650 nm, respectively. […] Leakage was expressed as a percent relative of the total amount of dye released by LUVs lysis with 1% Triton X-100, according to equation: % release = 100×(F(t)−F0)/(FT−F0). F(t) is the fluorescence intensity at time t, F0 is the fluorescence intensity before peptide addition and FT the fluorescence intensity after LUVs lysis.

[7] = Tryptophan fluorescence, membrane binding; settings: excitation 280 nm, PC/PG (9/1) LUVs, 25°C
Method: Tryptophan fluorescence was measured following the recommendations described in [51]. Excitation wavelength was 280 nm, and emission spectrum was collected (290–600 nm). Excitation and emission slits were 6 nm and 5 nm respectively. A cross-oriented configuration of the polarizer (Expol = 90°, Empol = 0°) was used in order to reduce LUVs diffusion artefacts.

[8] = PC/PG (9/1) MLVs, peptide/lipid 1/20 (w/w)
[9] = PC/PG (9/1) MLVs, peptide/lipid 1/20 (w/w), 20°C
[10] = PC/PG (9/1) MLVs, peptide/lipid 1/20 (w/w), 20°C, peptide-free 3.62

| Substance | Lethality [1] [%] | Ca2+ influx and mobilization of annexin 2 from cytosol to the plasma membrane [2] | Cell permeabilization [2] | P/L ratio at which LUV aggregation decreases ([3]; turbidity at 340 nm) | Peptide/lipid mass ratio (P/L) at which LUV aggregation starts [3] | S^−1 (repeat distance), Ld1 phase [5, 8] [nm] | S^−1 (repeat distance), Ld2 phase [5, 8] [nm] | dwater (thickness of the hydration layer), Ld2 phase [5, 9] [nm] | dwater (thickness of the hydration layer), Ld1 phase [5, 9] [nm] | dbilayer (thickness of the membrane bilayer), Ld2 phase [5, 10] [nm] | dbilayer (thickness of the membrane bilayer), Ld1 phase [5, 9] [nm] | Change of membrane thickness, Ld2 phase ([5]; 20°C) | Calcein release [6] [%] | P/L ratio of peptide-membrane saturation (maximal shift in emission wavelength) [7] | Permeability towards ions at high peptide concentration [2] | Change of bilayer thickness, Ld1 phase ([5]; 20°C) [Å] | Peptide/Lipid ratio at which LUVs are aggregated efficiently [3] | P/L ratio at the plateau of LUV aggregation ([3]; turbidity at 340 nm) | Time for growing micro-tubes to invade the entire vesicle internal volume ([4]; GUVs PC/PG 9/1, 25°C) | also measured |
| --- | --- | --- | --- | --- | --- | --- | --- | --- | --- | --- | --- | --- | --- | --- | --- | --- | --- | --- | --- | --- |
| RRLRRLLRRLLRRLRR-Bi [RL16, secondary amphipathic polyarginine-leucine peptide with biotin (Bi) on N-terminus] | 55 | provoked the Ca^2+ influx | yes | 1/10 | around 1/25 | 6.20 | 6.01 | 2.26 | 2.27 | 3.75 | 3.93 | +1.3 Å | 38 | – | – | – | – | – | – | Cell toxicity ([1]; CHO cells, 48 hours of peptide incubation): the only toxic peptide; GUV integrity ([4]; GUVs PC/PG 9/1, 25°C): complete GUV destruction after few seconds; P/L ratio at which a significant calcein release from LUVs is induced ([6]; 5 min after peptide addition): 1/5 |
| RRWRRWWRRWWRRWRR-Bi [RW16, secondary amphipathic polyarginine-tryptophane peptide with biotin (Bi) on N-terminus] | 0 | provoked the Ca^2+ influx | yes | 1/10 | around 1/25 | 6.08 | 5.89 | 2.18 | 2.25 | 3.71 | 3.83 | 0.9 Å | 14 | 1/10 | – | – | – | – | – | – |
| RPKPQQFFGLM-NH2 [SP, Substance P, neuromodulator, primary amphipathic peptide, free N-terminal amino group, reference compound] | 0 | – | no | – | – | 5.96 | 5.75 | 2.21 | 2.34 | – | 3.62 | – | 8 | – | did not induce any increase in permeability towards ions | −2.8 | – | – | – | LUV aggregation ([3]; turbidity at 340 nm, HEPES 10 mM pH 7.4, 25°C): does not aggregate LUVs; GUV morphology at high peptide concentration ([4]; after 6 hours of incubation, 50 µl of peptide solution at 0.5 mM in 2 ml of buffer): did not perturb GUVs morphology; dbilayer (thickness of the membrane bilayer), Ld2 phase [5]: 3.54 nm |
| RRRRRRRRR-NH2 [R9, Polyarginine, cell-penetrating peptide, nine arginines, free N-terminal amino group, reference compound] | 0 | – | no | – | 1/80 | – | – | – | – | – | – | – | 8 | – | did not induce any increase in permeability towards ions | – | 1/50 | 1/45 | less than 20 minutes | – |
| RRWWRRWRR-NH2 [RW9, short secondary amphipathic polyarginine-tryptophane peptide, free N-terminal amino group] | 0 | – | no | 1/10 | 1/35 | 5.96 | 5.74 | 2.19 | 2.33 | 3.55 | 3.63 | – | 7 | 1/15 | did not induce any increase in permeability towards ions | −2.7 | 1/30 | – | – | – |
| RQIKIWFQNRRMKWKK-NH2 [pAntp, Penetratin, cell-penetrating peptide, basic, non-amphipathic, 16 residues, reference compound] | 0 | – | no | – | 1/25 | 6.06 | 5.94 | 2.31 | 2.28 | 3.63 | 3.78 | – | 11 | 1/10 | did not induce any increase in permeability towards ions | – | 1/20 | 1/15 | less than 20 minutes | – |
